Measured values as given in US12162867B2, “Inhibitors of RNA helicase DHX9 and uses thereof” (ACCENT THERAPEUTICS, INC., priority 2022, dated 2024).
Read-outs that look alike come from different tables or passages of the source.

Tested on: circBRIP1 in HCT116 cells
Assay: DHX9 circBRIP1 cellular target engagement SYBR Green assay (qPCR)
Type: cell-based
Conditions: Homo sapiens
[1] = HCT-116, circBRIP1, HCT116 cells, SyBr assay (marked ^+), read-out: DHX9 Cellular Target Engagement EC50
[2] = HCT-116, read-out: DHX9 Cellular Target Engagement EC50
[3] = HCT-116, circBRIP1, HCT116 cells, ^+ SyBr assay was used, read-out: DHX9 Cellular Target Engagement EC50

Row | EC50 [1] | Structure (SMILES) | other results
1 | 2.43 µM | CS(=O)(=O)Nc1cc(Cl)cc(NC(=O)c2cnn(-c3ncccc3OCc3ccccn3)c2)c1 [Example 63] | 
2 |  | CS(=O)(=O)Nc1cc(Cl)cc(NC(=O)c2cnn(-c3ncccc3COc3ccccc3)c2)c1 [Example 167, N-(3-chloro-5-(methylsulfonamido)phenyl)-1-(3-(phenoxymethyl)pyridin-2-yl)-1H-pyrazole-4-carboxamide] | EC50 [2]: 1.75 µM
3 |  | CCOc1cnc(-n2cc(C(=O)Nc3cc(Cl)cc(NS(C)(=O)=O)c3)cc2C(F)(F)F)nc1 [Example 693] | EC50 [3]: 0.858 µM
4 | 0.578 µM | CS(=O)(=O)Nc1cc(Cl)cc(NC(=O)c2cnn(-c3ncccc3OCc3c[nH]cn3)c2)c1 [Example 254] | 
5 | 0.687 µM | CS(=O)(=O)Nc1cc(Br)cc(NC(=O)c2cc(-c3ccccc3OCc3ccccc3)cs2)c1 [Example 30] | 
6 | 0.895 µM | CS(=O)(=O)Nc1cc(Br)cc(NC(=O)c2cnn(-c3ncccn3)c2)c1 [Example 50, N-(3-bromo-5-(methylsulfonamido)phenyl)-1-(pyrimidin-2-yl)-1H-pyrazole-4-carboxamide] | 
7 |  | CS(=O)(=O)Nc1cc(Cl)cc(NC(=O)c2cc(-c3ncc(F)cn3)c(C3CC3)s2)c1 [Example 448] | EC50 [3]: 2.73 µM
8 | 16.1 µM | CS(=O)(=O)Nc1cc(Cl)cc(NC(=O)c2coc(-c3ccccc3)c2)c1 [Example 125] | 
9 |  | CS(=O)(=O)Nc1cc(Cl)cc(NC(=O)c2cnn(-c3ncccc3Oc3cccnc3)c2)c1 [Example 676] | EC50 [3]: 0.806 µM
10 | 0.278 µM | CS(=O)(=O)Nc1cc(Cl)cc(NC(=O)c2cnn(-c3ncccc3OCc3ccccc3)c2)c1 [Example 68] | 
11 | 1.88 µM | Cc1cc(C(=O)Nc2cc(Cl)cc(NS(C)(=O)=O)c2)cn1C1CCCC1 [Example 282] | 
12 | > 10 µM | CS(=O)(=O)Nc1cc(Cl)cc(NC(=O)c2cnn(CCO)c2)c1 [Example 127] | 
13 | 1.16 µM | CN1CCC(c2ccc(-n3cc(C(=O)Nc4cc(Cl)cc(NS(C)(=O)=O)c4)cn3)nc2)CC1=O (stereo not shown) [Example 266] | 
14 |  | CS(=O)(=O)Nc1cc(Cl)cc(NC(=O)c2cnn(-c3ccccc3COc3cncc(F)c3)c2)c1 [Example 428] | EC50 [3]: 0.201 µM
15 |  | CS(=O)(=O)Nc1cc(Cl)cc(NC(=O)c2cnn(-c3ncccc3NCc3ccccc3)c2)c1 [Example 168, 1-(3-(benzylamino)pyridin-2-yl)-N-(3-chloro-5-(methylsulfonamido)phenyl)-1H-pyrazole-4-carboxamide] | EC50 [2]: 2.13 µM
16 | > 10 µM | CS(=O)(=O)Nc1cc(Cl)cc(NC(=O)c2cc(N3CCNCC3)cs2)c1 [Example 244] | 
17 | 1.06 µM | CS(=O)(=O)Nc1cc(Cl)cc(NC(=O)c2cnn(-c3ncccc3OCc3cn[nH]c3)c2)c1 [Example 206] | 
18 | 0.251 µM | CS(=O)(=O)Nc1cc(Cl)cc(NC(=O)c2cc(-c3ccc(N4CC5(COC5)C4)cn3)n(CC(F)(F)F)c2)c1 [Example 278] | 
19 | 0.2 µM | CN(C)C(=O)c1cccnc1-c1csc(C(=O)Nc2cc(Cl)cc(NS(C)(=O)=O)c2)c1 [Example 222] | 
20 |  | Cc1cc(C(=O)Nc2cc(Cl)cc(NS(C)(=O)=O)c2)cn1-c1ncc(Cl)cn1 [Example 578] | EC50 [3]: 0.491 µM
21 | 0.508 µM | Cc1cc(C(=O)Nc2cc(Cl)cc(NS(C)(=O)=O)c2)cn1-c1ncc(F)cn1 [Example 207] | 
22 | > 10 µM | CS(=O)(=O)Nc1cc(Cl)cc(NC(=O)c2cnn(C3CCOC3)c2)c1 (stereo not shown) [Example 182] | 
23 | 3.51 µM | CS(=O)(=O)Nc1cc(I)cc(NC(=O)c2cc(-c3ccccc3)cs2)c1 [Example 16] | 
24 | 3.01 µM | CS(=O)(=O)Nc1cc(Br)cc(NC(=O)c2cnn(-c3cccc(C#N)c3)c2)c1 [Example 52] | 
25 | 3.6 µM | CS(=O)(=O)Nc1cc(Cl)cc(NC(=O)c2cnn(-c3ccc(N4CCn5ccnc5C4)cn3)c2)c1 [Example 192] | 
26 | 11.2 µM | CS(=O)(=O)Nc1cc(F)cc(NC(=O)c2cc(-c3ccccc3)cs2)c1 [Example 73] | 
27 | 9.23 µM | CS(=O)(=O)Nc1cc(Cl)cc(NC(=O)c2cnn(-c3ncccc3OCc3ccn[nH]3)c2)c1 [Example 253] | 
28 | 0.308 µM | CS(=O)(=O)Nc1cc(Cl)cc(NC(=O)c2cnn(-c3ncccc3OCc3ccccc3F)c2)c1 [Example 189] | 
